According to patent US20090030067A1, “Anti-proliferative combination therapy comprising satraplatin or jm118 and a taxane” ((GPC Biotech AG), priority 2005, published 2009):

Key:
[1] = tested on: A129 cp80; assay: SRB cytotoxicity assay, cisplatin-resistant A129 cp80 cell line; type: cell-based
Protocol: The parental non-mutated cell line A129 was used as control.
Briefly, cells were plated in 96 well dishes 24 hours prior to compound addition. The assay was terminated with the addition of cold TCA to a final concentration of 10% and the plates were incubated for one hour at 4° C. The plates were then washed 5 times with water and 100 μl of a Sulforhodamine B solution ([…]) was added to each well. The plate was then incubated for 10 minutes at room temperature before removal of unbound dye by washing with 1% acetic acid. The bound dye was solubilized with 10 mM Trizma base and the absorbance read at OD570.

[2] = tested on: A129; assay: SRB cytotoxicity assay, parental A129 cell line; type: cell-based; settings: 48 hours, mean and standard deviation
[3] = tested on: human non small cell lung cancer (NSCLC) cell line H460; assay: H460 xenograft model, satraplatin and docetaxel
[4] = tested on: human H460 non small cell lung cancer (NSCLC) cell line; assay: H460 xenograft model, satraplatin and paclitaxel
[5] = docetaxel 25 mg/kg iv d7, d14, of 10 animals
[6] = paclitaxel 25 mg/kg/day iv, Exp. A
[7] = paclitaxel 25 mg/kg/day iv, Exp. B
[8] = paclitaxel 40 mg/kg/day iv, Exp. A
[9] = paclitaxel 40 mg/kg/day iv, Exp. B
[10] = satraplatin 35 mg/kg/day po, Exp. B
[11] = satraplatin 40 mg/kg/day po, Exp. B
[12] = satraplatin 50 mg/kg/day po, Exp. A

SMILES: N.N.[Cl][Pt][Cl] [Cisplatin, cisplatin]
- IC50 ([1]; 48 hours, SRB assay, mean and standard deviation): 15.1 µM
- RR (relative resistance) ([1]; A129 cp80 versus A129): 80 +/− 25
- IC50 [2]: 0.23 µM

SMILES: CC(=O)O[C@@]12CO[C@@H]1C[C@H](O)[C@@]1(C)C(=O)[C@H](O)C3=C(C)[C@@H](OC(=O)[C@H](O)[C@@H](NC(=O)OC(C)(C)C)c4ccccc4)C[C@@](O)([C@@H](OC(=O)c4ccccc4)[C@H]21)C3(C)C [Docetaxel, N-debenzoyl-N-tert-butoxycarbonyl-10-deacetyl paclitaxel]
- LCK (Td = 2.7) ([3]; docetaxel 25 mg/kg iv d7, d14): 0.76
- Max TGI (d) ([3]; docetaxel 25 mg/kg iv d7, d14, maximum observed on day 13): 64.7 (13) %
- CR (number of animals with complete tumor regression) [3, 5]: 0
- Cure [3, 5]: 0
- PR (number of animals with partial tumor regression) [3, 5]: 0
- Toxic Deaths [3, 5]: 0

SMILES: CC(=O)O[C@H]1C(=O)[C@@]2(C)[C@H]([C@H](OC(=O)c3ccccc3)[C@]3(O)C[C@H](OC(=O)[C@H](O)[C@@H](NC(=O)c4ccccc4)c4ccccc4)C(C)=C1C3(C)C)[C@]1(OC(C)=O)CO[C@@H]1C[C@@H]2O [Paclitaxel, paclitaxel]
- LCK [4, 6]: 0.6
- Max TGI % [4, 6]: 56%
- Toxic deaths/total [4, 6]: 0/10
- LCK [4, 7]: 0.7
- Max TGI % [4, 7]: 47%
- Toxic deaths/total [4, 7]: 0/10
- LCK [4, 8]: 0.7
- Max TGI % [4, 8]: 64%
- Toxic deaths/total [4, 8]: 0/10
- LCK [4, 9]: 1.0
- Max TGI % [4, 9]: 59%
- Toxic deaths/total [4, 9]: 0/10
- tumor growth delay equivalent, LCK ([4]; paclitaxel 40 mg/kg/day, in two experiments): 0.7-1.0 LCK
- tolerability and activity as single agent ([4]; paclitaxel at both doses tested, 25 and 40 mg/kg/day): tolerated and active

SMILES: CC(=O)[O][Pt]([NH2])([Cl])([Cl])([NH]C1CCCCC1)[O]C(C)=O [Satraplatin, satraplatin]
- Max % BW loss ([3]; satraplatin 25 mg/kg po d8-12, d15-19): 6.1%
- Toxic Deaths ([3]; satraplatin 25 mg/kg po d8-12, d15-19, of 10 animals): 0
- Max % BW loss ([3]; satraplatin 35 mg/kg po d8-12, d15-19): 9.7%
- Toxic Deaths ([3]; satraplatin 35 mg/kg po d8-12, d15-19, of 10 animals): 1
- Max % BW loss [4, 10]: 12%
- Toxic deaths/total [4, 10]: 0/10
- Max % BW loss [4, 11]: 16%
- Toxic deaths/total [4, 11]: 4/10
- Max % BW loss [4, 12]: 26%
- Toxic deaths/total [4, 12]: 9/10
